Test results from paper PMC9501633, “Synthesis, Characterisation and Mechanism of Action of Anticancer 3-Fluoroazetidin-2-ones” (Pharmaceuticals, 2022).

What was measured:
RPMI-8226 = test: NCI 60 cell line screen, Leukaemia; assay type: cell-based, human; settings: one dose 10 µM; for inhibition at 10 µM: Homo sapiens
SR = test: NCI 60 cell line screen, Leukaemia; assay type: cell-based, human; settings: one dose 10 µM; for inhibition at 10 µM: Homo sapiens
HOP-92 = test: NCI 60 cell line screen, NSCLung; assay type: cell-based, human; settings: one dose 10 µM; for inhibition at 10 µM: Homo sapiens
NCI-H226 = test: NCI 60 cell line screen, NSCLung; assay type: cell-based, human; settings: one dose 10 µM; for inhibition at 10 µM: Homo sapiens
NCI-H322M = test: NCI 60 cell line screen, NSCLung; assay type: cell-based, human; settings: one dose 10 µM; for inhibition at 10 µM: Homo sapiens
NCI-H460 = test: NCI 60 cell line screen, NSCLung; assay type: cell-based, human; settings: one dose 10 µM; for inhibition at 10 µM: Homo sapiens
SF-268 = test: NCI 60 cell line screen, CNS; assay type: cell-based, human; settings: one dose 10 µM; for inhibition at 10 µM: Homo sapiens
SF-539 = test: NCI 60 cell line screen, CNS; assay type: cell-based, human; settings: one dose 10 µM; for inhibition at 10 µM: Homo sapiens
U251 = test: NCI 60 cell line screen, CNS; assay type: cell-based, human; settings: for inhibition at 10 µM: Homo sapiens, U-251, one dose 10 µM; for Growth %: one dose 10 µM
MALME-3M = test: NCI 60 cell line screen, Melanoma; assay type: cell-based, human; settings: one dose 10 µM; for inhibition at 10 µM: Homo sapiens
SK-MEL-28 = test: NCI 60 cell line screen, Melanoma; assay type: cell-based, human; settings: one dose 10 µM; for inhibition at 10 µM: Homo sapiens
OVCAR-4 = test: NCI 60 cell line screen, Ovarian; assay type: cell-based, human; settings: one dose 10 µM; for inhibition at 10 µM: Homo sapiens
SK-OV-3 = test: NCI 60 cell line screen, Ovarian; assay type: cell-based, human; settings: one dose 10 µM; for inhibition at 10 µM: Homo sapiens
ACHN = test: NCI 60 cell line screen, Renal; assay type: cell-based, human; settings: one dose 10 µM; for inhibition at 10 µM: Homo sapiens
RXF 393 = test: NCI 60 cell line screen, Renal; assay type: cell-based, human; settings: one dose 10 µM; for inhibition at 10 µM: Homo sapiens
UO-31 = test: NCI 60 cell line screen, Renal; assay type: cell-based, human; settings: one dose 10 µM; for inhibition at 10 µM: Homo sapiens
T-47D = test: NCI 60 cell line screen, Breast; assay type: cell-based, human; settings: one dose 10 µM; for inhibition at 10 µM: Homo sapiens, T47D
NCI 60 cell line panel = test: NCI 60 cell line screen, whole panel; assay type: cell-based; settings: for inhibition at 10 µM: Homo sapiens, 60 cell, one dose 10 μM, mean over the 60 cell lines, read-out: mean growth inhibition; for mean Growth %: one dose 10 µM, mean over the cell lines
Experimental: The antiproliferative effects of selected compounds 33, 37 and 43 were initially evaluated in the NCI 60 cell line screen at 10 μM concentration (see Supplementary Materials Table S3). […] . […] .
Compound 33 was next selected for evaluation in the NCI 60 cell line five-dose screen. The GI50 (50% growth inhibition), TGI (total growth inhibition) and LC50 (50% lethal concentration) were determined in the NCI panel of 60 cell lines, using the sulphorhodamine B (SRB) protein assay (Table 5). The GI50 value provides the growth inhibition of the selected compound, while the cytotoxic effect is evaluated in the LC50 value. […] . […] . Glioblastoma is an aggressive and fast-growing brain tumour with a median survival time of 9–16 months from diagnosis, and these tumours quickly evolve resistance to temozolomide chemotherapy, which is the only FDA-approved treatment. […] . Further mechanistic and cellular studies were carried out and are described below.
(§1) aData obtained from NCI in vitro human tumour cell screen 1 dose assay (10 µM). 33 (NCI

leukaemia panel = test: NCI 60 cell line one-dose screen, panel mean; assay type: cell-based; settings: Homo sapiens, one dose 10 μM, read-out: mean growth inhibition
Experimental: The antiproliferative effects of selected compounds 33, 37 and 43 were initially evaluated in the NCI 60 cell line screen at 10 μM concentration (see Supplementary Materials Table S3).
as §1

[1] = test system: MCF-7 human breast cancer cells; test: AlamarBlue cell viability assay; assay type: cell-based; settings: Homo sapiens, MCF7, 72 h, MCF-7, 72 h
Experimental: The antiproliferative potential of the synthesised 3-fluoro β-lactams 26–35 and 3,3-difluoro β-lactams 36–45 was evaluated in MCF-7 human breast cancer cells using the AlamarBlue assay, with CA-4 as reference compound (Figure 3). […] The results for the preliminary in vitro antiproliferative screen for 3-fluoro β-lactam compounds (26–29), which contain different substituents at the para position in the B ring, are presented in Figure 3A.
Cells were seeded at a density of 5 × 10^3 cells/well (MCF-7 and MDA-MB-231) and 1 × 10^4 cells/well (HEK-293T) in 96-well plates (200 μL per well). After 24 h, cells were then treated with medium alone, with vehicle (1% ethanol (v/v)) or with CA-4 or β-lactam compounds at 1 μM and 10 μM concentrations. […] Cell proliferation for MCF-7 cells was analysed with the AlamarBlue assay (Invitrogen Corp.) as previously described by us. After 72 h, AlamarBlue (10% (v/v)) was added to each well, and plates were incubated for 3–5 h at 37 °C in the dark. Fluorescence results were obtained with a 96-well fluorimeter with excitation at 530 nm and emission at 590 nm with results recorded as percentage viability relative to vehicle control (100%). Dose–response curves were obtained and IC50 values (concentration of drug resulting in 50% reduction in cell survival) were calculated using Prism (GraphPad Software, Inc., La Jolla, CA, USA).
Figure 3 Preliminary cell viability data for 3-fluoro and 3,3-difluoro β-lactam compounds. (A) 3-Fluoro β-lactam compounds containing different para-substituent ring B 26–29; 3-fluoro β-lactam compounds containing different meta-substituent ring B 30, 32–35; (B) 3-difluoro β-lactam compounds containing different para-substituent ring B 36–39; 3-difluoro β-lactam compounds containing different meta-substituent ring B 40, 42–45 in MCF-7 breast cancer cells. Cell proliferation of MCF-7 cells was determined with an AlamarBlue assay (seeding density […] for 96-well plates). Compound concentrations of either 10 μM or 1 μM for 72 h were used to treat the cells with control wells containing vehicle ethanol (1% v/v) and CA-4 (10 μM and 1 μM). The mean value for three experiments is shown with the ± S.E.M. for three independent experiments.

Row | Compound | inhibition at 10 µM (RPMI-8226) [%] | Growth % (RPMI-8226) [%] | inhibition at 10 µM (SR) [%] | Growth % (SR) [%] | inhibition at 10 µM (HOP-92) [%] | Growth % (HOP-92) [%] | inhibition at 10 µM (NCI-H226) [%] | Growth % (NCI-H226) [%] | inhibition at 10 µM (NCI-H322M) [%] | Growth % (NCI-H322M) [%] | inhibition at 10 µM (NCI-H460) [%] | Growth % (NCI-H460) [%] | inhibition at 10 µM (SF-268) [%] | Growth % (SF-268) [%] | inhibition at 10 µM (SF-539) [%] | Growth % (SF-539) [%] | inhibition at 10 µM (U251) [%] | Growth % (U251) [%] | inhibition at 10 µM (MALME-3M) [%] | Growth % (MALME-3M) [%] | further results
1 | CCOc1ccc(C2N(c3cc(OC)c(OC)c(OC)c3)C(=O)C2(F)F)cc1 (stereo not drawn) [Compound 37, 4-(4-Ethoxyphenyl)-3,3-difluoro-1-(3,4,5-trimethoxyphenyl)azetidin-2-one] | 85.4 | 14.64 | 83.8 | 16.25 | 44.4 | 55.62 | 29 | 71.01 | 32.8 | 67.23 | 87.3 | 12.73 | 47.6 | 52.38 | 89.2 | 10.75 | 63.8 | 36.19 | 36.9 | 63.07 | inhibition at 10 µM (SK-MEL-28): 33.2%; Growth % (SK-MEL-28): 66.8%; inhibition at 10 µM (OVCAR-4): 50.4%; Growth % (OVCAR-4): 49.59%; inhibition at 10 µM (SK-OV-3): 28.1%; Growth % (SK-OV-3): 71.89%; inhibition at 10 µM (ACHN): 44.8%; Growth % (ACHN): 55.25%; inhibition at 10 µM (RXF 393): 45.8%; Growth % (RXF 393): 54.19%; inhibition at 10 µM (UO-31): 48.1%; Growth % (UO-31): 51.9%; inhibition at 10 µM (T-47D): 30%; Growth % (T-47D): 70.03%; inhibition at 10 µM (NCI 60 cell line panel): 59%; mean Growth % (NCI 60 cell line panel): 41.05%; inhibition at 10 µM (leukaemia panel): 91.4%
2 | COc1ccc(C2N(c3cc(OC)c(OC)c(OC)c3)C(=O)C2(F)F)cc1F (stereo not drawn) [Compound 43, 3,3-Difluoro-4-(3-fluoro-4-methoxyphenyl)-1-(3,4,5-trimethoxyphenyl)azetidin-2-one] | 79.2 | 20.78 | 81.3 | 18.7 | 39.2 | 60.84 | 24.5 | 75.53 | 8.79 | 91.21 | 72.8 | 27.15 | 47.1 | 52.94 | 78.3 | 21.65 | 58.4 | 41.61 | 35.9 | 64.09 | IC50 [1]: 1.65 µM; inhibition at 10 µM (SK-MEL-28): 22.8%; Growth % (SK-MEL-28): 77.22%; inhibition at 10 µM (OVCAR-4): 41.7%; Growth % (OVCAR-4): 58.34%; inhibition at 10 µM (SK-OV-3): 24.5%; Growth % (SK-OV-3): 75.49%; inhibition at 10 µM (ACHN): 39.2%; Growth % (ACHN): 60.82%; inhibition at 10 µM (RXF 393): 50.6%; Growth % (RXF 393): 49.36%; inhibition at 10 µM (UO-31): 46.5%; Growth % (UO-31): 53.48%; inhibition at 10 µM (T-47D): 34.3%; Growth % (T-47D): 65.69%; inhibition at 10 µM (NCI 60 cell line panel): 56.4%; mean Growth % (NCI 60 cell line panel): 43.57%; inhibition at 10 µM (leukaemia panel): 86.3%
